Consider six compounds from patent publication US5840684A, “Glycopeptide antibiotic derivatives” (Eli Lilly and Company, priority 1995, dated 1998).

Values after ≈ are worked out from the molar mass of the structure shown. Bounds are passed on as bounds.

Test [1] concerns vancomycin-susceptible enterococci. Kind of test: broth micro-dilution, mean geometric MIC. The test is classed as cell-based, Enterococcus faecium and Enterococcus faecalis. Particulars: enterococci, 24-hour incubation. For orientation: Dilution methods test growth across graded concentrations, often in twofold steps.
In test [2] the test system is Staphylococcus aureus 446. Briefly: broth micro-dilution MIC. The test is classed as cell-based. As to the method:
(§1) The MIC's were determined using a standard broth micro-dilution assay.

The test system of test [3] is Staphylococcus aureus SA1199A. Kind of test: broth micro-dilution MIC. The test is classed as cell-based. As to the method:
as §1

Test [4] concerns Staphylococcus aureus X778. Kind of test: broth micro-dilution MIC. The test is classed as cell-based. As for the experimental part: as §1
The test system of test [5] is Staphylococcus aureus 447. Kind of test: broth micro-dilution MIC. In kind it is cell-based. As to the method: as §1
For test [6], the system named is Entercoccus faecium 180-1. Kind of test: broth micro-dilution MIC. In kind it is cell-based. As for the experimental part: as §1
The test system of test [7] is Staphylococcus aureus X400. Briefly: broth micro-dilution MIC. The test is classed as cell-based. As for the experimental part:
as §1

Test [8] relates to Staphylococcus aureus SA1199. Briefly: broth micro-dilution MIC. The test is classed as cell-based. As to the method:
as §1

The next test has as its system Entercoccus faecium 276. Briefly: broth micro-dilution MIC. The test is classed as cell-based. As to the method:
as §1

Test [9] concerns Streptococcus pyogenes C203. Briefly: broth micro-dilution MIC. The test is classed as cell-based. As to the method:
as §1

The subject of test [10] is Staphylococcus aureus 489. Kind of test: broth micro-dilution MIC. The test is classed as cell-based. As to the method:
as §1

The subject of test [11] is Staphylococcus aureus S13E. The test is classed as cell-based. As to the method:
as §1

Test [12] deals with Staphylococcus aureus SA1199B. In kind it is cell-based. As to the method:
as §1

Test [13] relates to Streptococcus pneumoniae P1. Kind of test: broth micro-dilution MIC. The test is classed as cell-based. As for the experimental part: (§2) The formula I compounds have in vitro and in vivo activity against Gram-positive pathogenic bacteria. The MIC's were determined using a standard broth micro-dilution assay.
The test system of test [14] is Staphylococcus haemolyticus 415. Kind of test: broth micro-dilution MIC. In kind it is cell-based. As to the method: as §2
Test [15] relates to Staphylococcus epidermidis 270. Briefly: broth micro-dilution MIC. The test is classed as cell-based. As to the method: as §2
In test [16] the test system is Staphylococcus haemolyticus 105. Kind of test: broth micro-dilution MIC. The test is classed as cell-based. As for the experimental part:
as §2

A further test has as its system Entercoccus faecium 2041. Kind of test: broth micro-dilution MIC. In kind it is cell-based. The note with it: Entercoccus faecium 2041. As to the method: as §2
A further test concerns Entercoccus faecium 180. Kind of test: broth micro-dilution MIC. The test is classed as cell-based. The note with it: Entercoccus faecium 180. As for the experimental part:
as §2

Test [17] relates to Enterococcus gallinarum 245. Kind of test: broth micro-dilution MIC. In kind it is cell-based. Particulars: Enterococcus gallinarum 245. As to the method:
as §2

The subject of test [18] is vancomycin-resistant enterococci. Briefly: broth micro-dilution, mean geometric MIC. The test is classed as cell-based, Enterococcus faecium and Enterococcus faecalis. The note with it: enterococci, 24-hour incubation.
For test [19], the system named is Staphylococcus aureus 491. Briefly: broth micro-dilution MIC. The test is classed as cell-based. As for the experimental part:
as §1

By MIC is commonly meant the lowest concentration found to suppress growth. As for `CNC(CC(C)C)C(=O)NC1C(=O)NC(CC(N)=O)C(=O)NC2C(=O)NC3C(=O)NC(C(=O)NC(C(=O)O)c4cc(O)cc(O)c4-c4cc3ccc4O)C(OC3CC(C)(N)C(O)C(C)O3)c3ccc(c(Cl)c3)Oc3cc2cc(c3OC2OC(CO)C(O)C(O)C2OC2CC(C)(NCc3ccc(O)cc3)C(O)C(C)O2)Oc2ccc(cc2Cl)C1O` (stereo not shown) [Compound 136], the “mean geometric MIC, Vancomycin Sensitive Strains” value in [1] stood at 0.76 µg/mL. For the same compound, the MIC is at most 0.06 µg/mL in test [2]; at most 0.06 µg/mL in [3]; at most 0.06 µg/mL in [4]; 2 µg/mL (≈ 1.18 µM) in [5]; at most 0.06 µg/mL in test [6]; at most 0.06 µg/mL in test [7]. For the same compound, the MIC (in test [8]; against Entercoccus faecium 276; in [9]; in test [10]; in [11]; in [12]) was at most 0.06 µg/mL in each case. Besides, the MIC in [13] is at most 0.06 µg/mL; in test [14], 4 µg/mL (≈ 2.35 µM); in [15], 1 µg/mL (≈ 0.589 µM); in test [16], 2 µg/mL (≈ 1.18 µM); in the test with Entercoccus faecium 2041, at most 0.06 µg/mL; in the test with Entercoccus faecium 180 it was 2 µg/mL (≈ 1.18 µM). The same compound came in with an MIC in test [17] of 4 µg/mL (≈ 2.35 µM). Also, in [18], the “mean geometric MIC, Vancomycin Resistant Strains” value was 23 µg/mL.
Consider `CNC(CC(C)C)C(=O)NC1C(=O)NC(CC(N)=O)C(=O)NC2C(=O)NC3C(=O)NC(C(=O)NC(C(=O)O)c4cc(O)cc(O)c4-c4cc3ccc4O)C(OC3CC(C)(N)C(O)C(C)O3)c3ccc(cc3)Oc3cc2cc(c3OC2OC(CO)C(O)C(O)C2OC2CC(C)(NCc3ccc(-c4ccccc4)cc3)C(O)C(C)O2)Oc2ccc(cc2)C1O` (stereo not shown) [Compound 183], for which the “mean geometric MIC, Vancomycin Sensitive Strains” value in test [1] was 0.130 µg/mL. The MIC in [2], in test [3], in test [4], in [5], in [6] and in [7] was at most 0.06 µg/mL each time. Besides, the minimal inhibitory concentration (MIC) in [8], in test [9], in [10], in [11], in test [12] and in test [13] was at most 0.06 µg/mL in each case. Further, the MIC was at most 0.06 µg/mL in [14]; at most 0.06 µg/mL in test [15]; at most 0.06 µg/mL in [16]; at most 0.06 µg/mL against Entercoccus faecium 2041; 2 µg/mL (≈ 1.18 µM) in the test on Entercoccus faecium 180; 0.5 µg/mL (≈ 0.296 µM) in test [17]. Moreover, the “mean geometric MIC, Vancomycin Resistant Strains” value in [18] worked out at 23 µg/mL.
In the case of `CNC(CC(C)C)C(=O)NC1C(=O)NC(CC(N)=O)C(=O)NC2C(=O)NC3C(=O)NC(C(=O)NC(C(=O)O)c4cc(O)cc(O)c4-c4cc3ccc4O)C(OC3CC(C)(N)C(O)C(C)O3)c3ccc(c(Cl)c3)Oc3cc2cc(c3OC2OC(CO)C(O)C(O)C2OC2CC(C)(NCc3sccc3-c3cccs3)C(O)C(C)O2)Oc2ccc(cc2Cl)C1O` (stereo not shown) [Compound 238], the “mean geometric MIC, Vancomycin Sensitive Strains” value in [1] was 0.14 µg/mL. Besides, the MIC in test [2] is 1 µg/mL (≈ 0.565 µM); in [3], at most 0.06 µg/mL; in test [4], 0.5 µg/mL (≈ 0.282 µM); in test [5] it was 0.5 µg/mL (≈ 0.282 µM); in test [6], at most 0.06 µg/mL; in test [7], 1 µg/mL (≈ 0.565 µM). For the same compound, the minimal inhibitory concentration (MIC) was 0.5 µg/mL (≈ 0.282 µM) in test [8]; at most 0.06 µg/mL against Entercoccus faecium 276; at most 0.06 µg/mL in [9]; 0.5 µg/mL (≈ 0.282 µM) in test [10]; 0.125 µg/mL (≈ 0.0706 µM) in test [11]; 0.5 µg/mL (≈ 0.282 µM) in test [12]. Also, the MIC in test [13] is at most 0.06 µg/mL; in [14], 2 µg/mL (≈ 1.13 µM); in test [15], 0.5 µg/mL (≈ 0.282 µM); in test [16], 0.5 µg/mL (≈ 0.282 µM); in the test on Entercoccus faecium 2041, at most 0.06 µg/mL; with Entercoccus faecium 180 it was 0.125 µg/mL (≈ 0.0706 µM). In test [17], this compound returned an MIC of at most 0.06 µg/mL. Besides, the “mean geometric MIC, Vancomycin Resistant Strains” value in test [18] was 1.4 µg/mL.
Regarding `CNC(CC(C)C)C(=O)NC1C(=O)NC(CC(N)=O)C(=O)NC2C(=O)NC3C(=O)NC(C(=O)NC(C(=O)O)c4cc(O)cc(O)c4-c4cc3ccc4O)C(OC3CC(C)(N)C(O)C(C)O3)c3ccc(c(Cl)c3)Oc3cc2cc(c3OC2OC(CO)C(O)C(O)C2OC2CC(C)(NCC34CC5CC(CC(C5)C3)C4)C(O)C(C)O2)Oc2ccc(cc2Cl)C1O` (stereo not shown) [Compound 141], the MIC in test [2] is 2 µg/mL (≈ 1.15 µM); in [3] it was at most 0.06 µg/mL; in test [4] it was 0.5 µg/mL (≈ 0.287 µM); in test [5], 1 µg/mL (≈ 0.574 µM); in [6], at most 0.06 µg/mL; against Entercoccus faecium 276, 0.5 µg/mL (≈ 0.287 µM). Also, the MIC in test [9] was at most 0.06 µg/mL; in [19], 0.5 µg/mL (≈ 0.287 µM); in [12], 2 µg/mL (≈ 1.15 µM); in test [13], at most 0.06 µg/mL; in test [14] it was 4 µg/mL (≈ 2.3 µM); in [15] it was 1 µg/mL (≈ 0.574 µM). Moreover, the MIC was 1 µg/mL (≈ 0.574 µM) in [16], at most 0.06 µg/mL against Entercoccus faecium 2041, 0.5 µg/mL (≈ 0.287 µM) against Entercoccus faecium 180 and 4 µg/mL (≈ 2.3 µM) in [17]. In addition, in [18], the “mean geometric MIC, Vancomycin Resistant Strains” value is 8.0 µg/mL.
`CNC(CC(C)C)C(=O)NC1C(=O)NC(CC(N)=O)C(=O)NC2C(=O)NC3C(=O)NC(C(=O)NC(C(=O)O)c4cc(O)cc(O)c4-c4cc3ccc4O)C(OC3CC(C)(N)C(O)C(C)O3)c3ccc(c(Cl)c3)Oc3cc2cc(c3OC2OC(CO)C(O)C(O)C2OC2CC(C)(NCc3ccc(NC(=O)c4ccc(F)cc4)cc3)C(O)C(C)O2)Oc2ccc(cc2Cl)C1O` (stereo not shown) [Compound 193]: the “mean geometric MIC, Vancomycin Sensitive Strains” value in test [1] was 0.072 µg/mL. Besides, the MIC was 0.5 µg/mL (≈ 0.275 µM) in [2]; at most 0.06 µg/mL in [3]; at most 0.06 µg/mL in test [4]; at most 0.06 µg/mL in test [5]; at most 0.06 µg/mL in test [6]; at most 0.06 µg/mL with Entercoccus faecium 276. In addition, the MIC in [9] was at most 0.06 µg/mL; in test [19], at most 0.06 µg/mL; in test [11] it was at most 0.06 µg/mL; in test [13], at most 0.06 µg/mL; in test [14], 1 µg/mL (≈ 0.55 µM); in [16], 0.5 µg/mL (≈ 0.275 µM). For the same compound, the MIC in the test on Entercoccus faecium 2041 was at most 0.06 µg/mL; against Entercoccus faecium 180, at most 0.06 µg/mL; in [17], 1 µg/mL (≈ 0.55 µM). Also, the “mean geometric MIC, Vancomycin Resistant Strains” value in test [18] worked out at 2 µg/mL.
For the compound `CNC(CC(C)C)C(=O)NC1C(=O)NC(CC(N)=O)C(=O)NC2C(=O)NC3C(=O)NC(C(=O)NC(C(=O)O)c4cc(O)cc(O)c4-c4cc3ccc4O)C(OC3CC(C)(N)C(O)C(C)O3)c3ccc(c(Cl)c3)Oc3cc2cc(c3OC2OC(CO)C(O)C(O)C2OC2CC(C)(NCc3cccc(OC(C)=O)c3)C(O)C(C)O2)Oc2ccc(cc2Cl)C1O` (stereo not shown) [Compound 77], the minimum inhibitory concentration (MIC) in [2] is at most 0.06 µg/mL; in test [3], at most 0.06 µg/mL; in [4], at most 0.06 µg/mL; in test [5] it was 1 µg/mL (≈ 0.575 µM); in test [6], 0.125 µg/mL (≈ 0.0718 µM); in [7], at most 0.06 µg/mL. Besides, the MIC in test [8] was at most 0.06 µg/mL; against Entercoccus faecium 276, 0.25 µg/mL (≈ 0.144 µM); in test [9], at most 0.06 µg/mL; in [10], at most 0.06 µg/mL; in [11], 0.125 µg/mL (≈ 0.0718 µM); in test [12] it was 0.125 µg/mL (≈ 0.0718 µM). Besides, the MIC in test [13] was at most 0.06 µg/mL; in [14], 8 µg/mL (≈ 4.6 µM); in [15] it was 0.5 µg/mL (≈ 0.287 µM); in test [16], 2 µg/mL (≈ 1.15 µM); with Entercoccus faecium 2041 it was 0.25 µg/mL (≈ 0.144 µM); with Entercoccus faecium 180 it was 8 µg/mL (≈ 4.6 µM). Besides, the minimal inhibitory concentration (MIC) in test [17] was found to be 0.25 µg/mL (≈ 0.144 µM).
